The values below come from patent US10716769B2 (GUANGZHOU JTREAT BIOSCI. LTD., priority 2015, dated 2020).

Common to all, as to format: cell-based
Test [1] deals with human cervical cancer cell line (HeLa). Nature of the test: MTT in vitro tumor cell inhibition. The settings on record: 3 days; for Inhibitory rate %: 10^−4 g/ml. The source says: (§1) An effective amount of the above compounds and/or the compositions containing the same used as an active ingredient have an effect on inhibiting the tumor cells. The present invention detects the inhibitory effect of the hydroxy-substituted benzophenone compounds on the proliferation of the in vitro cultured human tumor cells by the methylthiazolyl tetrazolium method.
(§2) The method is used to detect cell viability. […] Particles can be dissolved by dimethyl sulfoxide (DMSO) isopropyl alcohol or 10% acidified SDS (sodium dodecyl sulfate), and a microplate reader is used to measure the OD value at A570 wavelength, which indirectly reflects the number of live cells. The method is used for detection of the cytokines bioactivity, as well as anti-tumor drugs and tumor radiosensitivity and cytotoxicity test, and has the characteristics of being simple, fast, economical, sensitive and accurate and having good reproducibility and no need to use radionuclides. This method has been widely used in screening preclinical anticancer drugs and detecting the drug sensitivity of fresh tumor cells. The method is as below:
(§3) (1) The tumor cell suspension prepared by 0.25% of trypsin digestion and adjusted to a cell concentration of 10^5/ml with RPMI1640 containing 10% fetal calf serum is added to a 96-well plate with 100 μl for each well, cultured 24 hours, and then different dosages of drugs are added with 100 μl/well, for which, the negative control groups, positive control groups and withering wells are set, and 4 parallel wells are set for each group.
(§4) (2) They are continually cultured in incubator containing 5% of CO2 at 37° C. for 24 to 48 hours. MTT solution (5 g/L) is added to each well before the termination of the experiment. The OD value at A570 nm is detected by microplate reader. The OD value at A570 of the negative group without the addition of drugs is taken as a control. The cell survival rate and cell inhibition rate of drugs are calculated according to the following formula: Cell survival rate=(OD value of test group/OD value of control group)×100% Cell inhibition rate (%)=(OD value of the control group−OD value of the test group/(OD value of the control group−OD value of the blank group)
(§5) 1. Tumor cell lines: human glioma cell line (U251), human colon cancer cell line (LOVO), human hepatoma cell line (HepG2), human lung cancer cell line (PC84045), human endometrial carcinoma cell line (JEC), human renal carcinoma (GRC), human gastric cancer cell line (MCG804), human cervical cancer cell line (HeLa), human hepatocellular carcinoma cell line (BEL-7402) and human umbilical vein endothelial cell line (ECV304) purchased from Animal Experimental Center of Zhongshan Medical College, and preserved by the present laboratory.
(§6) The tumor cell lines are cultured in RPMI-1640 medium containing 15% of the newborn bovine serum in a conventional manner, placed in the humidification incubator containing 5% of CO2 for being cultured at 37° C., and are observed for growth by an inverted microscope. A subculture is conducted every about 3-5 days, the cells in logarithmic growth phase are adopted to be digested with 0.25% of trypsin, and the serum-free RPMI-1640 medium is used for culturing the cell suspension; the blood counting plate makes counting, the trypan blue exclusion tests the cell activity, and the cell viability>95% is used for formal tests.
(§7) Liquid preparation: the compounds are labeled with the codes respectively, DMSO is used to dissolve each compound, the bacterial filter is used to remove bacteria, and each compound is prepared into 10^−4 g/ml, 10^−5 g/ml, 10^−6 g/ml and preserved at 4° C. for use. […]

Test [2] relates to human endometrial carcinoma cell line (JEC). Nature of the test: MTT in vitro tumor cell inhibition. To be noted: 3 days.
From the text: as §1, §2, §3, §4, §5, §6, §7

The test system of test [3] is human glioma cell line (U251). Description: MTT in vitro tumor cell inhibition. The settings on record: 3 days.
From the text: as §1, §2, §3, §4, §5, §6, §7

Test [4] has as its system human lung cancer cell line (PC84045). Description: MTT in vitro tumor cell inhibition. To be noted: 3 days.
From the text: as §1, §2, §3, §4, §5, §6, §7

Test [5] concerns human colon cancer cell line (LOVO). Nature of the test: MTT in vitro tumor cell inhibition. To be noted: 3 days; for Inhibitory rate %: 10^−4 g/ml.
From the text: as §1, §2, §3, §4, §5, §6, §7

Test [6] has as its system human gastric cancer cell line (MCG804). Description: MTT in vitro tumor cell inhibition. To be noted: 3 days.
From the text: as §1, §2, §3, §4, §5, §6, §7

Test [7] relates to human hepatoma cell line (HepG2). Nature of the test: MTT in vitro tumor cell inhibition. To be noted: 3 days.
From the text: as §1, §2, §3, §4, §5, §6, §7

The test system of the next test is MCF7. Nature of the test: MTT in vitro tumor cell inhibition. To be noted: 3 days.
From the text: as §1, §2, §3, §4, §6
Liquid preparation: the compounds are labeled with the codes respectively, DMSO is used to dissolve each compound, the bacterial filter is used to remove bacteria, and each compound is prepared into 10^−4 g/ml, 10^−5 g/ml, 10^−6 g/ml and preserved at 4° C. for use.
MTT method: a bottle of 4-5 days old cells in the exponential growth phase are adopted to be cultured, and added with an appropriate amount of Trypsin-EDTA solution, so as to enable the adherent cells to fall off, and are prepared with 10 ml of RPMI-1640 medium containing 15% newborn bovine serum into suspensions; after stained with trypan blue, the cell number is counted on the blood counting plate to ensure that the live cells is more than 97%; the cell suspensions are diluted by the complete medium so that each […] of solution contains 5000-400000 cells; the 96-well plate is used with 200 μl of cell suspensions added into each. The 96-well plate is placed at 37° C. in 5% of CO2 containing incubator for 24 hours; the test compounds are diluted at 3 dilutions with 5 wells in parallel for each concentration; the serum-free RPMI1640 is used as the control group. […]

Another test has as its system HSV-I, VR733 strain. Nature of the test: Inhibition of cytopathic effects of Vero cells caused by herpes virus type I. To be noted: Human alphaherpesvirus 1; Vero cells, CPE 48 hours, Reed-Muench; read-out: IC50 Against HSV-1. The source says:
Vero cells (kidney cells of African green monkey) are used as viral hosts to test the inhibition degree of the samples to the cytopathic effects of Vero cells caused by herpes virus type I and type II.
Vero cells (kidney cells of African green monkey) are used as viral hosts to test the inhibition degree of the samples to cytopathic effects of the Vero cell caused by herpes virus type I and type II.
1. Virus strains: HSV-I, VR733 strain, and HSV-II, SAV strain, which both are provided by ATCC.
2. Sample treatment: the sample is dissolved in DMSO at an appropriate concentration before use, and diluted with the culture medium 3 times at a total of 8 dilutions for test.
3. Positive control drug: acyclovir (ACV) produced by the Hubei Ke Yi pharmaceutical factory.

≈ marks a conversion by molar mass, not a printed value.

Regarding `O=C(c1cc(O)c(O)cc1O)c1ccc(O)c(O)c1O`, the Inhibitory rate % is reported as 60.92% in [1]; 83.16% in [2] (10^−4 g/ml); 42.57% in test [2] (10^−5 g/ml); 68.82% in test [3] (U251, 10^−4 g/ml); 31.35% in test [3] (U251, 10^−5 g/ml); 82.49% in [4] (PC84045, 10^−4 g/ml). In addition, the Inhibitory rate % in [4] (PC84045, 10^−5 g/ml) is given as 70.97%; in test [4] (PC84045, 10^−6 g/ml) it was 49.70%; in test [5], 51.19%; in test [6] (MCG804, 10^−4 g/ml) it was 83.48%; in test [6] (MCG804, 10^−5 g/ml), 72.89%; in test [7] (HepG2, 10^−4 g/ml), 85.12%. Also, the Inhibitory rate % was determined as 51.57% in [7] (HepG2, 10^−5 g/ml); 73.19% in the test on MCF7 (MCF7, 10^−4 g/ml); 35.48% with MCF7 (MCF7, 10^−5 g/ml). Moreover, the “Inhibitory rate, sensitivity class” value is recorded as “insensitive (<30% means insensitive)” in [1] (10^−5 g/ml); “insensitive (<30% means insensitive)” in test [1] (10^−6 g/ml); “insensitive (<30% means insensitive)” in test [2] (10^−6 g/ml); “insensitive (<30% means insensitive)” in [3] (U251, 10^−6 g/ml); “insensitive (<30% means insensitive)” in test [5] (10^−5 g/ml); “insensitive (<30% means insensitive)” in test [5] (10^−6 g/ml). Also, the “Inhibitory rate, sensitivity class” value in test [6] (MCG804, 10^−6 g/ml) was “insensitive (<30% means insensitive)”; in [7] (HepG2, 10^−6 g/ml), “insensitive (<30% means insensitive)”; in the test with MCF7 (MCF7, 10^−6 g/ml), “insensitive (<30% means insensitive)”.
The IC50 is the midpoint of a concentration-inhibition curve. With `O=C(c1ccc(O)cc1O)c1ccc(O)cc1O` [2,4,2′,4′-tetrahydroxybenzophenone], in the test with HSV-I, VR733 strain, the IC50 turned out to be 28.7 µg/mL (≈ 117 µM). In addition, the Inhibitory rate % in test [1] is 31.05%; in [2] (10^−4 g/ml), 46.70%; in test [4] (PC84045, 10^−4 g/ml), 53.40%; in test [5] it was 53.29%; in test [6] (MCG804, 10^−4 g/ml), 38.95%; in test [7] (HepG2, 10^−4 g/ml), 74.85%. This molecule also showed an Inhibitory rate % in the test on MCF7 (MCF7, 10^−4 g/ml) of 45.73%. The “Inhibitory rate, sensitivity class” value is “insensitive (<30% means insensitive)” in test [1] (10^−5 g/ml); “insensitive (<30% means insensitive)” in test [1] (10^−6 g/ml); “insensitive (<30% means insensitive)” in test [2] (10^−5 g/ml); “insensitive (<30% means insensitive)” in test [2] (10^−6 g/ml); “insensitive (<30% means insensitive)” in test [4] (PC84045, 10^−5 g/ml); “insensitive (<30% means insensitive)” in test [4] (PC84045, 10^−6 g/ml). Besides, the “Inhibitory rate, sensitivity class” value is given as “insensitive (<30% means insensitive)” in [5] (10^−5 g/ml); “insensitive (<30% means insensitive)” in test [5] (10^−6 g/ml); “insensitive (<30% means insensitive)” in test [6] (MCG804, 10^−5 g/ml); “insensitive (<30% means insensitive)” in [6] (MCG804, 10^−6 g/ml); “insensitive (<30% means insensitive)” in test [7] (HepG2, 10^−5 g/ml); “insensitive (<30% means insensitive)” in test [7] (HepG2, 10^−6 g/ml). Also, the “Inhibitory rate, sensitivity class” value in the test on MCF7 (MCF7, 10^−5 g/ml) is given as “insensitive (<30% means insensitive)”; in the test on MCF7 (MCF7, 10^−6 g/ml), “insensitive (<30% means insensitive)”.
